Holding throughout (format): biochemical
One assay concerns the target T1, Factor Xa (Homo sapiens, UniProt P00742).
T1 construct: purchased Enzyme Research Laboratories, Southbend, Ind
Briefly: Factor Xa clotting activity in NHP without added APC (Factor Xa-1 Stage clotting assay). The note with it: for IC50: read-out: 50% inhibition of Factor Xa clotting activity. The procedure: FIG. 1 illustrates factor Xa clotting activity in the presence of PC311-325. The assay was performed as described in Example 5a6). Solid circles with solid lines depict factor Xa activity of 0.15 nM factor Xa in the presence of PC311-325 and solid triangles with dashed lines depict factor Xa activity in the presence of the control peptide.
FIG. 2 illustrates factor Xa clotting activity in the presence of PC142-155. The assay was performed as described in Example 5a6). Solid circles with solid lines depict factor Xa activity of 0.15 nM factor Xa in NHP in the presence of PC142-155 and solid triangles with dashed lines depict factor Xa activity in the presence of the scrambled peptide.
To determine the effect of the APC-inhibiting peptides, PC311-325 and PC142-155, on the amidolytic activity of Factor Xa, amidolytic assays as described for APC in Example 5a3 were performed using 0.15 nM Factor Xa in the presence of increasing amounts of peptide. Peptide PC311-325 ranged in concentration from 0 to 100 μM whereas peptide PC142-155 ranged in concentration from 0 to 50 μM.
For the assay, 100 μl of 0.15 nM factor Xa, prepared in Example 5a5) were admixed with separate aliquots of either peptide prepared in TBS-BSA at pH 7.4 containing 0.02% NaN3 and 2 mM CaCl2 to form APC-peptide admixtures. After maintenance of the admixtures for 30 minutes at 37° C., 50 μl of 2.4 mM S-2222 in the same buffer were admixed to initiate the amidolytic reaction. The hydrolysis of the substrate was measured as described before.
The Factor Xa-1 Stage assay was conducted as described in Example 5a6). In that assay, the IC50 for peptides PT557-571. PT463-478, PT473-487, PT481-495, X404-418, X415-429 and X329-344 were 50, >500, 25, >500, 50, 115, and 500, respectively.

The next assay has as its target prothrombinase. Briefly: prothrombinase assay with purified proteins. The note with it: for inhibition of prothrombinase activity in the absence of Factor Va: up to 200 μM PC311-325, up to 250 μM PC142-155. The procedure:
FIG. 3 illustrates prothrombinase activity in the presence of PC311-325. The assay was performed using 1 nM factor Xa, 0.4 nM factor Va, 1.2 μM prothrombin and […] factor Xa in the absence of factor Va in TBS-BSA, 2.5 mM CaCl2, pH 7.4. Unless otherwise specified all prothrombinase assays were carried out in the presence of 50 μM phospholipid vesicles. In all cases solid symbols indicate prothrombinase activity in the presence of factor Va whereas open symbols indicate prothrombinase activity in the […] of factor Va. Solid circles with solid lines indicate prothrombinase activity (with factor Va) in the presence of PC311-325, solid squares with solid lines indicate prothrombinase activity (with factor Va) in the presence of PC311-325 but in the absence of phospholipid vesicles and solid triangles with dashed lines indicate prothrombinase activity (with factor Va) in the presence of the control peptide. Open circles with solid lines denote prothrombinase activity (without factor Va) in the presence of PC311-325 and open triangles with dashed lines denote prothrombinase activity (without factor Va) in the presence of the control peptide.
FIG. 4 illustrates prothrombinase activity in the presence of PC142-155. The assay was performed using 1 nM factor Xa, 0.4 nM factor Va, 1.2 μM prothrombin and 2.5 nM factor Xa in the absence of factor Va in TSB-BSA, 2.5 mM CaCl2, 50 μM phospholipid vesicles, pH 7.4. In all cases solid symbols indicate prothrombinase activity in the […] of factor Va. Solid circles with solid lines indicate prothrombinase activity (with factor Va) in the presence of PC142-155 and solid triangles with dashed lines indicate prothrombinase activity (with factor Va) in the presence of the scrambled peptide. Open circles with solid lines denote prothrombinase activity (without factor Va) in the presence of PC142-155 and open triangles with dashed lines denote prothrombinase activity (without factor Va) in the presence of the scrambled peptide.
Factor Va was determined via its cofactor activity in the activation of prothrombin by Factor Xa. Amounts of Factor Xa (Enzyme Research Lab.), phospholipid vesicles and prothrombin (purified as described by Stenflo, J. Biol. Chem., 25:355-363, (1976) from a barium citrate plasma precipitate purified by DEAE-sephadex chromatography) present in the assay were such that the rate of prothrombin activation was linearly dependent on factor Va and constant over the time course of the experiment. The molar concentration of Factor Xa was determined by active site titration as described by Chase et al., Biochem. Biophys. Res. Commun., 29:508-514 (1967). The molecular weights and extinction coefficients (E280 nm/mg/ml) used in the calculation of protein concentrations were as follows: prothrombin, 72,000 and 1.44; APC, 62,000 and 1.45; and Factor X, 65,300 and 1.16.
In a typical experiment, Factor Va was assayed as follows. An aliquot of the solution containing Va was admixed to a solution containing prothrombin, phospholipids and calcium in individual wells of a 96-well microtiter plate. Prothrombin activation was initiated with the mixture of Factor Xa to the Va-containing wells to form a reaction admixture. Final concentrations of reagents in the reaction mixture were the following: 1.2 μM prothrombin, 1 nM Xa, 0-0.4 nM Va, 50 μM phospholipid-vesicles (phosphatidylserine 20%/phosphatidylcholine 80%; M/M), in 0.05 M Tris-HCl at pH 7.4 containing 0.1 M NaCl, 0.5% BSA and 2.0 mM CaCl2. The reaction was maintained at 22° C. At one minute time intervals from initiation of the reaction, 20 μl aliquots of the reaction admixture were withdrawn and admixed to wells of an ELISA plate containing 80 μl TBS-BSA and 10 mM EDTA at pH 8.0 resulting in the quenching of the prothrombinase reaction. […]

For the next assay, the target named is thrombin (Homo sapiens, UniProt P00734). Briefly: clotting of purified fibrinogen by thrombin.
Where [1] appears, read: NHP, 0.15 nM factor Xa, no added APC.

Here are results for four compounds from patent US5968751A, “Method for detecting the presence of protein C antibody in a fluid sample” (The Scripps Research Institute, priority 1997, dated 1999).

Where two headings read alike, the source gives them in different places. No end group written: not given here.

T1 sequence (P00742 41-179 limits assumed): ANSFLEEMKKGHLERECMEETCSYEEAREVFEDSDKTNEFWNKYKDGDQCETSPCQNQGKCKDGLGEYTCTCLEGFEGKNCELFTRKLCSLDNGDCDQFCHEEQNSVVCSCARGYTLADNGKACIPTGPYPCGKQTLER
T1 sequence (P00742 235-488 limits assumed): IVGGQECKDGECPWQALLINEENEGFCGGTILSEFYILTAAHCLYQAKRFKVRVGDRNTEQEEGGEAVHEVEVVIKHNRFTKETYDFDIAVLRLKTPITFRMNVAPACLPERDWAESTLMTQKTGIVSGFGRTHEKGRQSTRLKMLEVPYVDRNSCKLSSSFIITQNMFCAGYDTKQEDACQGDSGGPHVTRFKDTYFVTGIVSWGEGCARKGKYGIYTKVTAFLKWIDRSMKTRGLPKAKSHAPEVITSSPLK

As for `CSCC[C@H](NC(=O)[C@H](CCCNC(=N)N)NC(=O)[C@H](CCCCN)NC(=O)[C@H](Cc1c[nH]c2ccccc12)NC(=O)[C@@H]1CCCN1C(=O)[C@H](CCCNC(=N)N)NC(=O)CN)C(=O)N[C@@H](CCC(=O)O)C(=O)N[C@@H](CCCCN)C(=O)N[C@@H](CCCCN)C(=O)N[C@@H](CCCNC(=N)N)C(=O)N[C@@H](CO)C(=O)N[C@@H](Cc1c[nH]cn1)C(=O)N[C@@H](CC(C)C)C(=O)N[C@@H](CS)C(N)=O` [PC142-155, Gly-Arg-Pro-Trp-Lys-Arg-Met-Glu-Lys-Lys-Arg-Ser-His-Leu], the IC50 came out at 10 µM at Factor Xa (setting [1]) and 5 µM on Factor Xa (clotting assays in plasma).
Regarding “KRNRTFVLNFIKIPV-NH2 [PC311-325, Lys-Arg-Asn-Arg-Thr-Phe-Val-Leu-Asn-Phe-Ile-Lys-Ile-Pro-Val]”, the IC50 at prothrombinase (presence of Factor Va, read-out: 50% inhibition of prothrombinase activity) is 8 µM; at Factor Xa (setting [1]), 7 µM. Further, the “inhibition of prothrombinase activity in the absence of Factor Va” value in the assay on prothrombinase is listed as “very little if any significant inhibition”. The “effect on the clotting of purified fibrinogen by thrombin” value on thrombin is on record as “no effect”.
Consider “MHKLREGKWRPKSR [Scrambled peptide, reference compound]”, for which the “inhibition of prothrombinase activity in the presence of Factor Va” value in the assay with prothrombinase is reported as “small amount of inhibition”. Moreover, the “inhibition of prothrombinase activity” value in the assay with prothrombinase (100 μM peptide, presence of Factor Va) was 40%. Also, the “inhibition of Factor Xa activity” value with Factor Xa (50 μM peptide, NHP) turned out to be 40%; with Factor Xa (50 μM peptide, NHP, listed as scrambled control peptide), 37%. The “effect on the clotting of purified fibrinogen by thrombin” value in the assay with thrombin is listed as “no effect”.
“VKFTIRVFNPRNLKI [Control Peptide, reference compound]”: in the assay with prothrombinase, the “inhibition of prothrombinase activity in the presence of Factor Va” value is on record as “very little if any significant inhibition” and the “inhibition of prothrombinase activity in the absence of Factor Va” value is reported as “very little if any significant inhibition”. Further, the “inhibition of Factor Xa activity” value in the assay with Factor Xa (100 μM peptide, NHP) was 30%.
